In PubChem BioAssay (NCI):
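96-well plates; 48 h exposure; 5 concentrations. Endpoints by linear interpolation between flanking doses. Not reached: highest tested concentration assigned. GI50 marks 50% less growth. At the TGI there is no net growth.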 Where a SMILES comes first, the peptide text is derived from it. [ ]: non-standard residue; d: D form. The star is where a group is joined. AllylGly = C=CC[CH](N)C(=O)O; Boc = CC(C)(C)OC(=O)*; OtBu = CC(C)(C)O*

Key:
Test in all cases: growth of human tumour cells (NCI), 48 h
LOX IMVI melanoma = test system: LOX IMVI melanoma
NCI-H226 lung = test system: NCI-H226 lung
NCI-H522 lung = test system: NCI-H522 lung
SF-295 CNS = test system: SF-295 CNS
SK-MEL-2 melanoma = test system: SK-MEL-2 melanoma
SK-OV-3 ovarian = test system: SK-OV-3 ovarian

C=CCC(NC(=O)C(CC(=O)OC(C)(C)C)NC(=O)OC(C)(C)C)C(=O)OC (centres undefined) (Boc-Asp(OtBu)-[AllylGly]-OMe; configuration not given here)
TGI (LOX IMVI melanoma): 41.7 µM
TGI (NCI-H226 lung): > 100 µM
TGI (NCI-H522 lung): > 100 µM
TGI (SF-295 CNS): > 100 µM
TGI (SK-MEL-2 melanoma): > 100 µM
TGI (SK-OV-3 ovarian): > 100 µM

CC1(c2nc3cc(Cl)c(Cl)cc3[nH]2)CCC(CO)C(C)(C)O1 (centres undefined)
TGI (LOX IMVI melanoma): > 100 µM
TGI (NCI-H226 lung): 56.6 µM
TGI (NCI-H522 lung): 30.3 µM
TGI (SF-295 CNS): 95.3 µM
TGI (SK-MEL-2 melanoma): 90.4 µM
TGI (SK-OV-3 ovarian): > 100 µM

CN1CN(c2ccccc2)C2(CCN(CCCSc3ccccc3NC(=O)/C=C/c3ccccc3)CC2)C1=O
TGI (LOX IMVI melanoma): 4.61 µM
TGI (NCI-H226 lung): 5.56 µM
TGI (NCI-H522 lung): 62.4 µM
TGI (SF-295 CNS): 7.95 µM
TGI (SK-MEL-2 melanoma): 6.12 µM
TGI (SK-OV-3 ovarian): > 42.3 µM

COc1ccc(/C=C2\C[C@H]3[C@@H]4CCC5=C[C@@H](N6CCCC6)CC[C@]5(C)[C@H]4CC[C@]3(C)[C@H]2O)cc1
TGI (LOX IMVI melanoma): 3.61 µM
TGI (NCI-H226 lung): 10.9 µM
TGI (NCI-H522 lung): 7.36 µM
TGI (SF-295 CNS): 5.52 µM
TGI (SK-MEL-2 melanoma): 3.6 µM
TGI (SK-OV-3 ovarian): 14.8 µM

CC1(C)N=C(C(N)=O)c2ncn(-c3ccccc3)c2N1
TGI (LOX IMVI melanoma): > 100 µM
TGI (NCI-H226 lung): > 100 µM
TGI (NCI-H522 lung): > 100 µM
TGI (SF-295 CNS): > 100 µM
TGI (SK-MEL-2 melanoma): > 100 µM
TGI (SK-OV-3 ovarian): > 100 µM

CN(NC(=O)CCCl)C1=NCCN1
TGI (LOX IMVI melanoma): > 100 µM
TGI (NCI-H226 lung): > 100 µM
TGI (NCI-H522 lung): > 100 µM
TGI (SF-295 CNS): > 100 µM
TGI (SK-MEL-2 melanoma): > 100 µM
TGI (SK-OV-3 ovarian): > 100 µM

COc1cc(CCCOC(=O)/C=C/c2ccc(O)c(O)c2)cc(O)c1O
TGI (LOX IMVI melanoma): 45.6 µM
TGI (NCI-H226 lung): > 100 µM
TGI (NCI-H522 lung): 29.2 µM
TGI (SF-295 CNS): > 100 µM
TGI (SK-MEL-2 melanoma): > 100 µM
TGI (SK-OV-3 ovarian): > 100 µM

CC1(C2(C)OC(=O)c3ccccc32)OC(=O)c2ccccc21 (centres undefined)
TGI (LOX IMVI melanoma): > 100 µM
TGI (NCI-H226 lung): > 100 µM
TGI (NCI-H522 lung): > 100 µM
TGI (SF-295 CNS): > 100 µM
TGI (SK-MEL-2 melanoma): > 100 µM
TGI (SK-OV-3 ovarian): > 100 µM

C[C@]12CC[C@@H]3c4cc(OCC(F)(F)F)c(O)cc4C(=O)C[C@H]3[C@@H]1CC[C@@H]2O
TGI (LOX IMVI melanoma): > 100 µM
TGI (NCI-H226 lung): > 100 µM
TGI (NCI-H522 lung): > 100 µM
TGI (SF-295 CNS): 15.4 µM
TGI (SK-MEL-2 melanoma): > 26.1 µM
TGI (SK-OV-3 ovarian): 47.5 µM

O=c1[nH]c(Nc2cccc(C(F)(F)F)c2)nc2nc[nH]c12
TGI (LOX IMVI melanoma): > 100 µM
TGI (NCI-H226 lung): > 100 µM
TGI (NCI-H522 lung): > 100 µM
TGI (SF-295 CNS): > 100 µM
TGI (SK-MEL-2 melanoma): > 100 µM
TGI (SK-OV-3 ovarian): > 100 µM

CCCCCNc1nonc1N
TGI (LOX IMVI melanoma): > 100 µM
TGI (NCI-H226 lung): > 100 µM
TGI (NCI-H522 lung): > 100 µM
TGI (SF-295 CNS): > 100 µM
TGI (SK-MEL-2 melanoma): > 100 µM
TGI (SK-OV-3 ovarian): > 100 µM

Cn1c(=O)cc(NCc2ccc(Cl)cc2)[nH]c1=O
TGI (LOX IMVI melanoma): > 100 µM
TGI (NCI-H226 lung): > 100 µM
TGI (NCI-H522 lung): > 100 µM
TGI (SF-295 CNS): > 100 µM
TGI (SK-MEL-2 melanoma): > 100 µM
TGI (SK-OV-3 ovarian): > 100 µM

COc1ccc(-c2csc(=Nc3ccccc3)n2CC(O)c2ccc([N+](=O)[O-])cc2)cc1 (centres undefined)
TGI (LOX IMVI melanoma): > 100 µM
TGI (NCI-H226 lung): > 100 µM
TGI (NCI-H522 lung): > 100 µM
TGI (SF-295 CNS): > 100 µM
TGI (SK-MEL-2 melanoma): > 100 µM
TGI (SK-OV-3 ovarian): > 100 µM

COc1ccc2nc3ccc(OC)cc3c(S(=O)(=O)Cc3ccc([N+](=O)[O-])cc3)c2c1
TGI (LOX IMVI melanoma): > 100 µM
TGI (NCI-H226 lung): > 100 µM
TGI (NCI-H522 lung): > 100 µM
TGI (SF-295 CNS): > 100 µM
TGI (SK-MEL-2 melanoma): > 100 µM
TGI (SK-OV-3 ovarian): > 100 µM

COC(=O)C(O)P(=O)(OC)OC (centres undefined)
TGI (LOX IMVI melanoma): > 100 µM
TGI (NCI-H226 lung): > 100 µM
TGI (NCI-H522 lung): > 100 µM
TGI (SF-295 CNS): > 100 µM
TGI (SK-MEL-2 melanoma): > 100 µM
TGI (SK-OV-3 ovarian): > 100 µM

OC12COc3ccccc3C1Oc1ccccc1C2 (centres undefined)
TGI (LOX IMVI melanoma): > 100 µM
TGI (NCI-H226 lung): > 100 µM
TGI (NCI-H522 lung): > 100 µM
TGI (SF-295 CNS): > 100 µM
TGI (SK-MEL-2 melanoma): > 100 µM
TGI (SK-OV-3 ovarian): > 100 µM

CCNC1(c2cccc(C)c2)OC(C)(C)c2cccc3cccc1c23 (centres undefined)
TGI (LOX IMVI melanoma): 32.6 µM
TGI (NCI-H226 lung): 39 µM
TGI (NCI-H522 lung): 29.6 µM
TGI (SF-295 CNS): 35.2 µM
TGI (SK-MEL-2 melanoma): 30.3 µM
TGI (SK-OV-3 ovarian): 37.9 µM

CC1(C)CC[C@]2(C)CC=C3[C@]4(C)CC[C@H]5C(C)(C)C(=O)CC[C@]5(C)[C@H]4CC[C@@]3(C)[C@H]2C1
TGI (LOX IMVI melanoma): > 100 µM
TGI (NCI-H226 lung): > 100 µM
TGI (NCI-H522 lung): > 100 µM
TGI (SF-295 CNS): > 100 µM
TGI (SK-MEL-2 melanoma): > 100 µM
TGI (SK-OV-3 ovarian): > 100 µM

CCCCCCOc1ccc(C(=O)NOCc2ccccc2)cc1
TGI (LOX IMVI melanoma): > 100 µM
TGI (NCI-H226 lung): > 100 µM
TGI (NCI-H522 lung): > 100 µM
TGI (SF-295 CNS): > 100 µM
TGI (SK-MEL-2 melanoma): > 100 µM
TGI (SK-OV-3 ovarian): > 100 µM

COCC1CCCN1c1ccc(/C=C(/C#N)C(N)=S)cc1 (centres undefined)
GI50 (LOX IMVI melanoma): > 100 µM
TGI (LOX IMVI melanoma): > 100 µM
GI50 (NCI-H226 lung): 34.6 µM
TGI (NCI-H226 lung): > 100 µM
GI50 (NCI-H522 lung): 12.7 µM
TGI (NCI-H522 lung): 61.4 µM
GI50 (SF-295 CNS): > 100 µM
TGI (SF-295 CNS): > 100 µM
GI50 (SK-MEL-2 melanoma): > 100 µM
TGI (SK-MEL-2 melanoma): > 100 µM
GI50 (SK-OV-3 ovarian): > 100 µM
TGI (SK-OV-3 ovarian): > 100 µM

CCCCn1c(C)c(C(=O)OCC)s/c1=N/Nc1nc2ccccc2nc1-c1ccccc1
TGI (LOX IMVI melanoma): > 100 µM
TGI (NCI-H226 lung): > 100 µM
TGI (NCI-H522 lung): > 100 µM
TGI (SF-295 CNS): > 100 µM
TGI (SK-MEL-2 melanoma): > 100 µM
TGI (SK-OV-3 ovarian): > 100 µM

CC(C)C1(C)N=C(C(F)(F)F)c2cc(C(=O)C(F)(F)F)c3ccccc3c2N1 (centres undefined)
TGI (LOX IMVI melanoma): 7.01 µM
TGI (NCI-H226 lung): 30.4 µM
TGI (NCI-H522 lung): 7.16 µM
TGI (SF-295 CNS): 11.8 µM
TGI (SK-MEL-2 melanoma): 6.99 µM
TGI (SK-OV-3 ovarian): 30.2 µM

O=[N+]([O-])c1cccc2nc3ccccc3c(NCCc3cccc[n+]3[O-])c12
TGI (LOX IMVI melanoma): 0.121 µM
TGI (NCI-H226 lung): 0.562 µM
TGI (NCI-H522 lung): 0.157 µM
TGI (SF-295 CNS): 0.266 µM
TGI (SK-MEL-2 melanoma): 0.528 µM
TGI (SK-OV-3 ovarian): 0.979 µM
